According to the supplement of paper PMC10307832:

Experiments:
Assay in all cases: relative viability (nuclei count vs DMSO), 5 days (fraction); higher = more cells survive
[1] = compound: CC(C)C[C@@H](C(=O)N[C@H](C(=O)OC1CCCC1)c1ccccc1)[C@H](O)C(=O)NO [Tosedostat] + NC(=O)Nc1cc(-c2cccc(F)c2)sc1C(=O)N[C@H]1CCCNC1 [AZD7762] (partner 0.2 µM)
Summary of the method: (§1)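 The day after seeding in 1536-well plates, lung cancer cell lines were treated by pin tool with a single drug, or with a fixed anchor-drug dose together with five library-drug doses (not always all listed) in √10 steps. After 5 days, a combined fix-and-stain solution (final 0.05% Triton X-100, 1% formaldehyde, 1 ug/ml Hoechst) was added. Nuclei counted on 4× images gave relative viability as treated counts over vehicle counts, reported as the median of duplicate plates.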

[2] = compound: CC(C)C[C@@H](C(=O)N[C@H](C(=O)OC1CCCC1)c1ccccc1)[C@H](O)C(=O)NO [Tosedostat] + O=C(c1cc(Cc2n[nH]c(=O)c3ccccc23)ccc1F)N1CCN(C(=O)C2CC2)CC1 [Olaparib] (partner 8 µM)
Summary of the method: as §1

[3] = compound: CC1=NN=C(O1)C2=NN=C(C=C2)N3CCC(CC3)OC4=C(C=CC(=C4)F)Cl + COc1cc2c(Oc3ccc(NC(=O)C4(C(=O)Nc5ccc(F)cc5)CC4)cc3F)ccnc2cc1OCCCN1CCOCC1 [Foretinib] (partner 0.25 µM)
Summary of the method: as §1

[4] = compound: CC1=NN=C(O1)C2=NN=C(C=C2)N3CCC(CC3)OC4=C(C=CC(=C4)F)Cl + C[C@@H](Oc1cc(-c2cnn(C3CCNCC3)c2)cnc1N)c1c(Cl)ccc(F)c1Cl [Crizotinib] (partner 1 µM)
Summary of the method: as §1

| Cell Line | relative viability ([1]; first compound 0.02 µM) | relative viability ([1]; first compound 0.06325 µM) | relative viability ([1]; first compound 0.2 µM) | relative viability ([1]; first compound 0.6325 µM) | relative viability ([1]; first compound 2 µM) | relative viability ([2]; first compound 0.02 µM) | relative viability ([2]; first compound 0.06325 µM) | relative viability ([2]; first compound 0.2 µM) | relative viability ([2]; first compound 0.6325 µM) | relative viability ([2]; first compound 2 µM) | relative viability ([3]; first compound 0.253 µM) | relative viability ([3]; first compound 0.8 µM) | relative viability ([3]; first compound 2.53 µM) | relative viability ([3]; first compound 8 µM) | relative viability ([4]; first compound 0.253 µM) | relative viability ([4]; first compound 0.8 µM) | relative viability ([4]; first compound 2.53 µM) | relative viability ([4]; first compound 8 µM) |
| --- | --- | --- | --- | --- | --- | --- | --- | --- | --- | --- | --- | --- | --- | --- | --- | --- | --- | --- |
| 201T | 0.592 | 0.668 | 0.669 | 0.584 | 0.576 | 0.824 | 0.913 | 0.874 | 0.896 | 0.862 | 0.607 | 0.758 | 0.661 | 0.73 | 0.456 | 0.504 | 0.499 | 0.484 |
| A549 |  |  |  |  |  | 0.42 | 0.247 | 0.359 | 0.26 | 0.306 | 0.746 | 0.545 | 0.464 | 0.53 | 0.461 | 0.383 | 0.316 | 0.319 |
| A-427 | 0.787 | 0.804 | 0.773 | 0.682 | 0.698 | 0.763 | 0.674 | 0.708 | 0.757 | 0.747 | 1.02 |  | 0.998 | 0.871 | 0.826 |  | 0.779 | 0.671 |
| ABC-1 | 1.2 |  | 0.755 | 0.822 | 0.732 | 0.842 | 0.784 | 0.843 | 0.848 | 0.491 | 0.601 | 0.439 | 0.578 | 0.644 | 0.686 | 0.615 | 0.426 | 0.436 |
| BEN | 0.813 | 0.724 | 0.901 | 1.12 | 1.04 | 1.11 | 0.952 | 1.31 | 1.09 | 1.02 | 0.679 | 0.7 | 0.665 | 0.541 | 0.709 | 0.796 | 0.913 | 0.86 |
| CAL-12T | 0.703 | 0.577 | 0.593 | 0.678 | 0.629 | 0.769 | 0.658 | 0.588 | 0.59 | 0.549 | 0.965 | 0.964 | 0.879 | 0.777 | 0.552 | 0.602 | 0.728 | 0.506 |
| COR-L23 |  |  |  |  |  | 0.471 | 0.295 | 0.291 | 0.269 | 0.268 | 0.901 | 0.836 | 0.869 | 0.672 | 0.527 | 0.586 | 0.433 | 0.435 |
| COR-L 105 |  |  |  |  |  | 0.771 | 0.636 | 0.695 | 0.507 | 0.591 | 0.994 | 1.06 | 1.12 | 1.08 | 0.689 | 0.907 | 0.786 | 0.82 |
| Calu-6 |  |  |  |  |  | 0.631 | 0.494 | 0.5 | 0.439 | 0.326 | 0.602 | 0.597 | 0.517 | 0.573 | 0.485 | 0.469 | 0.483 | 0.465 |
| ChaGo-K-1 | 0.957 | 0.889 | 0.81 | 0.767 | 0.603 | 0.459 | 0.399 | 0.44 | 0.377 | 0.325 | 0.773 | 0.709 | 0.785 | 0.739 | 0.76 | 0.669 | 0.721 | 0.694 |
| EBC-1 |  |  |  |  |  | 0.661 | 0.637 | 0.546 | 0.442 | 0.409 | 0.0917 | 0.0957 | 0.103 | 0.0946 | 0.216 | 0.171 | 0.179 | 0.202 |
| EKVX | 0.821 | 0.71 | 0.747 | 0.761 | 0.657 | 0.754 | 0.834 | 0.818 | 0.576 | 0.721 | 0.41 | 0.382 | 0.382 | 0.36 | 0.369 | 0.313 | 0.311 | 0.393 |
| EMC-BAC-2 | 1.09 | 1.02 | 1.1 | 1.07 | 0.859 | 0.517 | 0.41 | 0.459 | 0.428 | 0.378 | 0.968 | 0.95 | 0.89 | 0.98 | 0.583 | 0.648 | 0.632 | 0.545 |
| EPLC-272H | 0.248 | 0.232 | 0.267 | 0.153 | 0.192 | 0.879 | 0.711 | 0.557 | 0.471 | 0.293 | 0.713 | 0.604 | 0.638 | 0.637 | 0.877 |  | 0.926 | 1.03 |
| H3255 | 1.04 | 0.919 | 0.953 | 0.81 | 0.746 | 0.596 | 0.532 | 0.545 | 0.525 | 0.497 | 0.793 | 0.644 | 0.783 | 0.673 | 0.548 | 0.646 | 0.538 | 0.625 |
| HARA | 0.41 | 0.459 | 0.261 | 0.477 | 0.262 | 0.762 | 0.853 | 0.779 | 0.519 | 0.662 | 0.538 | 0.289 | 0.317 | 0.273 | 0.747 | 0.327 | 0.271 | 0.294 |
